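48-hour exposure; five concentrations; linearly interpolated endpoints. At the GI50, growth is halved.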 The source made the active and inactive calls. Rule as the data show it: active = GI50 up to about 1.1 µM and inactive = higher. Where a SMILES comes first, the peptide text is derived from it. The star is where a group is joined. Boc = CC(C)(C)OC(=O)*
Assays:
Assay in all cases: NCI-60 cell line screen, 48 h
786-0 = test system: 786-0
A498 = test system: A498
A549 = test system: A549
ACHN = test system: ACHN
CAKI-1 = test system: CAKI-1
COLO 205 = test system: COLO 205
DLD-1 = test system: DLD-1
DMS-114 = test system: DMS-114
DMS-273 = test system: DMS-273
EKVX = test system: EKVX
HCC 2998 = test system: HCC 2998
HCT-116 = test system: HCT-116
HCT-15 = test system: HCT-15
HL-60 = test system: HL-60
HOP-18 = test system: HOP-18
HOP-62 = test system: HOP-62
HOP-92 = test system: HOP-92
HT-29 = test system: HT-29
IGROV-1 = test system: IGROV-1
K562 = test system: K562
KM-20L2 = test system: KM-20L2
KM12 = test system: KM12
LXFL 529 = test system: LXFL 529
M14 = test system: M14
M19-MEL = test system: M19-MEL
MOLT-4 = test system: MOLT-4
Malme-3M = test system: Malme-3M
NCI-H226 = test system: NCI-H226
NCI-H23 = test system: NCI-H23
NCI-H460 = test system: NCI-H460
NCI-H522 = test system: NCI-H522
OVCAR-3 = test system: OVCAR-3
OVCAR-4 = test system: OVCAR-4
OVCAR-5 = test system: OVCAR-5
OVCAR-8 = test system: OVCAR-8
RPMI-8226 = test system: RPMI-8226
RXF 393 = test system: RXF 393
RXF 631 = test system: RXF 631
SF-268 = test system: SF-268
SF-295 = test system: SF-295
SF-539 = test system: SF-539
SK-MEL-2 = test system: SK-MEL-2
SK-MEL-5 = test system: SK-MEL-5
SK-OV-3 = test system: SK-OV-3
SN12C = test system: SN12C
SNB-19 = test system: SNB-19
SNB-75 = test system: SNB-75
SNB-78 = test system: SNB-78
SR = test system: SR
SW-620 = test system: SW-620
TK-10 = test system: TK-10
U-251 = test system: U-251
UACC-257 = test system: UACC-257
UACC-62 = test system: UACC-62
UO-31 = test system: UO-31
XF498 = test system: XF498
CCRF-CEM = test system: CCRF-CEM
LOX IMVI = test system: LOX IMVI
SK-MEL-28 = test system: SK-MEL-28

SMILES: Cn1c(N)nc(=O)c2c1N(C1OC(CO)C(O)C1O)CN2Cc1ccccc1 (stereo not drawn)
- GI50 (786-0): > 100 µM (inactive)
- GI50 (A498): > 100 µM (inactive)
- GI50 (A549): > 100 µM (inactive)
- GI50 (ACHN): > 100 µM (inactive)
- GI50 (CAKI-1): > 100 µM (inactive)
- GI50 (COLO 205): > 100 µM (inactive)
- GI50 (DLD-1): > 100 µM (inactive)
- GI50 (DMS-114): > 100 µM (inactive)
- GI50 (DMS-273): > 100 µM (inactive)
- GI50 (EKVX): > 100 µM (inactive)
- GI50 (HCC 2998): > 100 µM (inactive)
- GI50 (HCT-116): > 100 µM (inactive)
- GI50 (HCT-15): > 100 µM
- GI50 (HL-60): > 100 µM (inactive)
- GI50 (HOP-18): > 100 µM (inactive)
- GI50 (HOP-62): > 100 µM (inactive)
- GI50 (HOP-92): > 100 µM (inactive)
- GI50 (HT-29): > 100 µM (inactive)
- GI50 (IGROV-1): > 100 µM (inactive)
- GI50 (K562): > 100 µM (inactive)
- GI50 (KM-20L2): > 100 µM (inactive)
- GI50 (KM12): > 100 µM (inactive)
- GI50 (LXFL 529): > 100 µM (inactive)
- GI50 (M14): > 100 µM (inactive)
- GI50 (M19-MEL): > 100 µM (inactive)
- GI50 (MOLT-4): > 100 µM (inactive)
- GI50 (Malme-3M): > 100 µM (inactive)
- GI50 (NCI-H226): > 100 µM (inactive)
- GI50 (NCI-H23): > 100 µM (inactive)
- GI50 (NCI-H460): > 100 µM (inactive)
- GI50 (NCI-H522): > 100 µM (inactive)
- GI50 (OVCAR-3): > 100 µM (inactive)
- GI50 (OVCAR-4): > 100 µM (inactive)
- GI50 (OVCAR-5): > 100 µM (inactive)
- GI50 (OVCAR-8): > 100 µM (inactive)
- GI50 (RPMI-8226): > 100 µM (inactive)
- GI50 (RXF 393): > 100 µM (inactive)
- GI50 (RXF 631): > 100 µM (inactive)
- GI50 (SF-268): > 100 µM (inactive)
- GI50 (SF-295): > 100 µM (inactive)
- GI50 (SF-539): > 100 µM (inactive)
- GI50 (SK-MEL-2): > 100 µM (inactive)
- GI50 (SK-MEL-5): > 100 µM (inactive)
- GI50 (SK-OV-3): > 100 µM (inactive)
- GI50 (SN12C): > 100 µM (inactive)
- GI50 (SNB-19): > 100 µM (inactive)
- GI50 (SNB-75): > 100 µM (inactive)
- GI50 (SNB-78): > 100 µM (inactive)
- GI50 (SR): > 100 µM (inactive)
- GI50 (SW-620): > 100 µM (inactive)
- GI50 (TK-10): > 100 µM (inactive)
- GI50 (U-251): > 100 µM (inactive)
- GI50 (UACC-257): > 100 µM (inactive)
- GI50 (UACC-62): > 100 µM (inactive)
- GI50 (UO-31): > 100 µM (inactive)
- GI50 (XF498): > 100 µM (inactive)

SMILES: CC(C)(C)OC(=O)NC(Cc1ccc(O)cc1)C(=O)N1CCCC1C(=O)O (stereo not drawn) (Boc-Tyr-Pro-OH; configuration not given here)
- GI50 (786-0): > 100 µM (inactive)
- GI50 (A498): > 100 µM (inactive)
- GI50 (A549): > 100 µM (inactive)
- GI50 (ACHN): > 100 µM (inactive)
- GI50 (CAKI-1): > 100 µM (inactive)
- GI50 (CCRF-CEM): > 100 µM (inactive)
- GI50 (COLO 205): > 100 µM (inactive)
- GI50 (DLD-1): > 100 µM (inactive)
- GI50 (DMS-114): > 100 µM (inactive)
- GI50 (DMS-273): > 100 µM (inactive)
- GI50 (EKVX): > 100 µM (inactive)
- GI50 (HCC 2998): > 100 µM (inactive)
- GI50 (HCT-116): > 100 µM (inactive)
- GI50 (HCT-15): > 100 µM
- GI50 (HL-60): > 100 µM (inactive)
- GI50 (HOP-18): > 100 µM (inactive)
- GI50 (HOP-62): > 100 µM (inactive)
- GI50 (HOP-92): > 100 µM (inactive)
- GI50 (HT-29): > 100 µM (inactive)
- GI50 (IGROV-1): > 100 µM (inactive)
- GI50 (K562): > 100 µM (inactive)
- GI50 (KM-20L2): > 100 µM (inactive)
- GI50 (KM12): > 100 µM (inactive)
- GI50 (LOX IMVI): > 100 µM (inactive)
- GI50 (LXFL 529): > 100 µM (inactive)
- GI50 (M14): > 100 µM (inactive)
- GI50 (M19-MEL): > 100 µM (inactive)
- GI50 (MOLT-4): > 100 µM (inactive)
- GI50 (Malme-3M): > 100 µM (inactive)
- GI50 (NCI-H226): > 100 µM (inactive)
- GI50 (NCI-H23): > 100 µM (inactive)
- GI50 (NCI-H460): > 100 µM (inactive)
- GI50 (NCI-H522): > 100 µM (inactive)
- GI50 (OVCAR-3): > 100 µM (inactive)
- GI50 (OVCAR-4): > 100 µM (inactive)
- GI50 (OVCAR-5): > 100 µM (inactive)
- GI50 (OVCAR-8): > 100 µM (inactive)
- GI50 (RPMI-8226): > 100 µM (inactive)
- GI50 (RXF 393): > 100 µM (inactive)
- GI50 (RXF 631): > 100 µM (inactive)
- GI50 (SF-268): > 100 µM (inactive)
- GI50 (SF-295): > 100 µM (inactive)
- GI50 (SF-539): > 100 µM (inactive)
- GI50 (SK-MEL-28): > 100 µM (inactive)
- GI50 (SK-MEL-2): > 100 µM (inactive)
- GI50 (SK-MEL-5): > 100 µM (inactive)
- GI50 (SK-OV-3): > 100 µM (inactive)
- GI50 (SN12C): > 100 µM (inactive)
- GI50 (SNB-19): > 100 µM (inactive)
- GI50 (SNB-75): > 100 µM (inactive)
- GI50 (SNB-78): > 100 µM (inactive)
- GI50 (SR): > 100 µM (inactive)
- GI50 (SW-620): > 100 µM (inactive)
- GI50 (TK-10): > 100 µM (inactive)
- GI50 (U-251): > 100 µM (inactive)
- GI50 (UACC-257): > 100 µM (inactive)
- GI50 (UACC-62): > 100 µM (inactive)
- GI50 (UO-31): > 100 µM (inactive)
- GI50 (XF498): > 100 µM (inactive)

SMILES: CC(=O)Oc1c(C)n(CCCl)ccc1=O
- GI50 (786-0): > 100 µM (inactive)
- GI50 (A498): > 100 µM (inactive)
- GI50 (A549): > 100 µM (inactive)
- GI50 (ACHN): 69.3 µM (inactive)
- GI50 (CAKI-1): > 100 µM (inactive)
- GI50 (CCRF-CEM): 84.3 µM (inactive)
- GI50 (COLO 205): > 100 µM (inactive)
- GI50 (DLD-1): > 100 µM (inactive)
- GI50 (DMS-114): > 100 µM (inactive)
- GI50 (DMS-273): > 100 µM (inactive)
- GI50 (EKVX): > 100 µM (inactive)
- GI50 (HCT-116): > 100 µM (inactive)
- GI50 (HCT-15): 34.8 µM
- GI50 (HL-60): > 100 µM (inactive)
- GI50 (HOP-18): > 100 µM (inactive)
- GI50 (HOP-62): > 100 µM (inactive)
- GI50 (HT-29): > 100 µM (inactive)
- GI50 (K562): > 100 µM (inactive)
- GI50 (KM-20L2): 57.7 µM (inactive)
- GI50 (KM12): > 100 µM (inactive)
- GI50 (LOX IMVI): > 100 µM (inactive)
- GI50 (LXFL 529): > 100 µM (inactive)
- GI50 (M14): > 100 µM (inactive)
- GI50 (M19-MEL): > 100 µM (inactive)
- GI50 (MOLT-4): > 100 µM (inactive)
- GI50 (Malme-3M): > 100 µM (inactive)
- GI50 (NCI-H226): > 100 µM (inactive)
- GI50 (NCI-H460): 44.6 µM (inactive)
- GI50 (NCI-H522): > 100 µM (inactive)
- GI50 (OVCAR-3): > 100 µM (inactive)
- GI50 (OVCAR-4): > 100 µM (inactive)
- GI50 (OVCAR-5): 56.6 µM (inactive)
- GI50 (OVCAR-8): > 100 µM (inactive)
- GI50 (RPMI-8226): > 100 µM (inactive)
- GI50 (RXF 393): > 100 µM (inactive)
- GI50 (RXF 631): 59.4 µM (inactive)
- GI50 (SF-268): > 100 µM (inactive)
- GI50 (SF-295): > 100 µM (inactive)
- GI50 (SK-MEL-28): > 100 µM (inactive)
- GI50 (SK-MEL-2): > 100 µM (inactive)
- GI50 (SK-MEL-5): > 100 µM (inactive)
- GI50 (SK-OV-3): > 100 µM (inactive)
- GI50 (SN12C): > 100 µM (inactive)
- GI50 (SNB-19): > 100 µM (inactive)
- GI50 (SNB-75): > 100 µM (inactive)
- GI50 (SNB-78): > 100 µM (inactive)
- GI50 (SR): > 100 µM (inactive)
- GI50 (TK-10): 22.5 µM (inactive)
- GI50 (U-251): > 100 µM (inactive)
- GI50 (UACC-257): > 100 µM (inactive)
- GI50 (UACC-62): > 100 µM (inactive)
- GI50 (UO-31): 59.2 µM (inactive)
- GI50 (XF498): > 100 µM (inactive)

— ChEMBL document CHEMBL1201862, “PubChem BioAssay data set” (2004)
